# Measured values published in ChEMBL document CHEMBL3714732, “Small molecule modulators of g protein-coupled receptor six” (2001).
# The source made the active and inactive calls. No cut-off for these calls is given here.
# What was measured:
# [1] = molecular target: T1, G-protein coupled receptor 6 (Homo sapiens, UniProt P46095); assay: Inverse agonist activity at rat G-protein GSalpha fused GPR6 (unknown origin) expressed in HEK293 cell membranes assessed as cAMP accumulation pre-incubated for 30 mins by microbeta plate reader based assay; format: functional
# T1 sequence (P46095 whole entry, the tested form may be a part): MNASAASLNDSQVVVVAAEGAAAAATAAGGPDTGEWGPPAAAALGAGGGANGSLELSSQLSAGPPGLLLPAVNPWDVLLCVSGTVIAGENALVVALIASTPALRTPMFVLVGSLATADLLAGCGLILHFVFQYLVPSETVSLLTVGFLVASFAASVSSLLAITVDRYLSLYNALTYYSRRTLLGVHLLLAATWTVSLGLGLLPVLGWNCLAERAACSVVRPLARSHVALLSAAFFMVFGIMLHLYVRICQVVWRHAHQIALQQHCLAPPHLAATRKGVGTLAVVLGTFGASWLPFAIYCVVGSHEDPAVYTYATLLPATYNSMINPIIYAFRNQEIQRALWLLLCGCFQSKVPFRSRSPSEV
# [2] = molecular target: T1, G-protein coupled receptor 6; assay: Inverse agonist activity at rat G-protein GSalpha fused GPR6 (unknown origin) expressed in HEK293 cell membranes assessed as effect on [35S]GTPgammaS binding pre-incubated for 5 to 10 mins followed by 60 mins incubation in presence of [35S]GTPgammaS by scintillation proximity assay; format: functional
# Rattus norvegicus [3] = assay: Reduction in food intake in 24 hrs food-deprived Sprague-Dawley rat assessed as food intake level at 100 umol/kg, po followed by standard chow pellets feeding and measured 8 hrs post dose (reference value: 14 to 14.5g); format: functional
# Rattus norvegicus [4] = assay: Reduction in food intake in non-food-deprived Sprague-Dawley rat assessed as food intake level at 6.5 to 54 mg/kg, po followed by standard chow pellets feeding and measured 18 hrs post dose (reference value: 15g); format: functional
# Rattus norvegicus [5] = assay: Reduction in food intake in non-food-deprived Sprague-Dawley rat assessed as food intake level at 13.5 mg/kg, ip dosed 30 mins before beginning of dark cycle followed by exposure to standard chow pellets and measured 4 hrs post dose (reference value: 9g); format: functional
# Rattus norvegicus [6] = assay: Reduction in food intake in 24 hrs food-deprived Sprague-Dawley rat assessed as food intake level at 27 mg/kg, po followed by standard chow pellets feeding and measured 2.5 hrs post dose (reference value: 6g); format: functional
# Rattus norvegicus [7] = assay: Reduction in water intake in 24 hrs food-deprived Sprague-Dawley rat assessed water intake level at 25 and 50 nmol, icv (reference value: 17 g); format: functional
# Rattus norvegicus [8] = assay: Induction of sedation in non-food-deprived Sprague-Dawley rat subjected to pre-pulse of 12 db followed by 120 db pulse assessed as animal jump height level at 13.5 and 54 mg/kg, po dosed 4.5 hrs before test; format: organism-based; settings: in vivo
# Rattus norvegicus [9] = assay: Induction of sedation in non-food-deprived Sprague-Dawley rat subjected to pre-pulse of 12 db followed by 120 db pulse assessed as animal jump height level at 6.75 mg/kg, po dosed 4.5 hrs before test; format: organism-based; settings: in vivo
# Rattus norvegicus [10] = assay: Reduction in food intake in 24 hrs food-deprived Sprague-Dawley rat assessed food intake level at 25 to 100 nmol, icv measured 3 hrs post dose (reference value: 2.5g); format: functional
# Rattus norvegicus [11] = assay: Reduction in body weight gain in non-food-deprived Sprague-Dawley rat at 13.5 mg/kg, ip qd for 22 days measured between day-31 and day-60 post dose; format: functional, organism-based
# Rattus norvegicus [12] = assay: Reduction in body weight gain in 24 hrs food-deprived Sprague-Dawley rat assessed as body weight level at 54 mg/kg, ip followed by standard chow pellets feeding and measured 6.5 hrs post dose; format: functional, organism-based
# Rattus norvegicus [13] = assay: Reduction in body weight gain in 24 hrs food-deprived Sprague-Dawley rat assessed as body weight level at 27 mg/kg, ip followed by standard chow pellets feeding and measured 6.5 hrs post dose; format: functional, organism-based
# Rattus norvegicus [14] = assay: Reduction in body weight gain in 24 hrs food-deprived Sprague-Dawley rat assessed as body weight at 100 umol/kg, po followed by standard chow pellets feeding and measured 8 hrs post dose (reference value: 19.5g); format: functional
# Rattus norvegicus [15] = assay: Reduction in water intake in 24 hrs food-deprived Sprague-Dawley rat at 100 nmol, icv; format: functional
# Rattus norvegicus [16] = assay: Reduction in food intake in 24 hrs food-deprived Sprague-Dawley rat assessed as food intake level at 54 mg/kg, po followed by standard chow pellets feeding and measured 8 hrs post dose (reference value: 14g); format: functional
# Rattus norvegicus [17] = assay: Reduction in body weight gain in 24 hrs food-deprived Sprague-Dawley rat assessed as body weight level at 13.5 mg/kg, ip followed by standard chow pellets feeding and measured 6.5 hrs post dose (reference value: 20g); format: functional
# Rattus norvegicus [18] = assay: Reduction in water intake in non-food-deprived Sprague-Dawley rat at 6.75 to 54 mg/kg, ip dosed 30 mins before beginning of dark cycle followed by exposure to standard chow pellets and measured 15.5 hrs post dose; format: functional, organism-based
# Rattus norvegicus [19] = assay: Reduction in water intake in 24 hrs food-deprived Sprague-Dawley rat assessed as at 27 mg/kg, ip followed by standard chow pellets feeding and measured 6.5 hrs post dose relative to control; format: functional
# Rattus norvegicus [20] = assay: Reduction in water intake in 24 hrs food-deprived Sprague-Dawley rat at 54 mg/kg, ip followed by standard chow pellets feeding and measured 6.5 hrs post dose relative to control; format: functional
# Rattus norvegicus [21] = assay: Reduction in food intake in 24 hrs food-deprived Sprague-Dawley rat assessed as food intake level at 54 mg/kg, ip followed by standard chow pellets feeding and measured 1.5 hrs post dose (reference value: 6g); format: functional
# Rattus norvegicus [22] = assay: Reduction in body weight gain in non-food-deprived Sprague-Dawley rat at 13.5 mg/kg, ip qd for 22 days measured on day-1 and day-3 post dose; format: functional, organism-based
# Rattus norvegicus [23] = assay: Reduction in food intake in 24 hrs food-deprived Sprague-Dawley rat assessed as food intake level at 54 mg/kg, ip followed by standard chow pellets feeding and measured 6.5 hrs post dose (reference value: =<14g); format: functional
# Rattus norvegicus [24] = assay: Induction of sedation in ip dosed Sprague-Dawley rat assessed as relaxed behavior after 16 hrs post dose; format: organism-based; settings: in vivo
# Rattus norvegicus [25] = assay: Reduction in body weight gain in non-food-deprived Sprague-Dawley rat at 6.75 to 54 mg/kg, ip dosed 30 mins before beginning of dark cycle followed by exposure to standard chow pellets and measured 15.5 hrs post dose; format: functional, organism-based
# Rattus norvegicus [26] = assay: Reduction in body weight gain in 24 hrs food-deprived Sprague-Dawley rat assessed body weight gain intake level at 100 nmol, icv (reference value: 12g); format: functional
# Rattus norvegicus [27] = assay: Reduction in food intake in non-food-deprived Sprague-Dawley rat assessed as food intake level at 54 mg/kg, ip dosed 30 mins before beginning of dark cycle followed by exposure to standard chow pellets and measured 4 hrs post dose (reference value: 9g); format: functional
# Rattus norvegicus [28] = assay: Reduction in food intake in non-food-deprived Sprague-Dawley rat at 6.5 to 54 mg/kg, po followed by standard chow pellets feeding and measured 18 hrs post dose relative to control; format: functional
# Rattus norvegicus [29] = assay: Reduction in body weight gain in non-food-deprived Sprague-Dawley rat at 13.5 mg/kg, ip qd for 22 days measured between day-4 and day-31 post dose; format: functional, organism-based
# Rattus norvegicus [30] = assay: Reduction in food intake in 24 hrs food-deprived Sprague-Dawley rat dosed orally followed by standard chow pellets feeding; format: functional, organism-based
# Rattus norvegicus [31] = assay: Reduction in food intake in 24 hrs food-deprived Sprague-Dawley rat assessed as food intake level at 54 mg/kg, po followed by standard chow pellets feeding and measured 2.5 hrs post dose (reference value: 6g); format: functional
# Rattus norvegicus [32] = assay: Reduction in food intake in 24 hrs food-deprived Sprague-Dawley rat assessed as food intake level at 27 mg/kg, po followed by standard chow pellets feeding and measured 8 hrs post dose (reference value: 14g); format: functional
# Rattus norvegicus [33] = assay: Induction of sedation in ip dosed Sprague-Dawley rat assessed as absence of anxiety like behavior after 16 hrs post dose; format: organism-based; settings: in vivo
# Rattus norvegicus [34] = assay: Reduction in food intake in 24 hrs food-deprived Sprague-Dawley rat at 25 to 100 nmol, icv measured after 2 hrs post dose; format: functional
# Rattus norvegicus [35] = species: Rattus norvegicus; assay: Effect on motor function in Sprague-Dawley rat assessed as effect on locomotor activity for 1.5 hrs tested immediately after compound dose; format: organism-based; settings: in vivo
# Rattus norvegicus [36] = assay: Reduction in body weight gain in 24 hrs food-deprived Sprague-Dawley rat assessed as body weight gain level at 100 umol/kg, po followed by standard chow pellets feeding and measured 6 hrs post dose (reference value: 19.25 to 20.3g); format: functional
# Rattus norvegicus [37] = assay: Reduction in water intake in 24 hrs food-deprived Sprague-Dawley rat assessed as water intake level at 100 umol/kg, po followed by standard chow pellets feeding and measured 6 hrs post dose (reference value: 19.25 to 22.9g); format: functional
# Rattus norvegicus [38] = assay: Reduction in food intake in 24 hrs food-deprived Sprague-Dawley rat assessed as food intake level per 2 hrs at 100 umol/kg, po followed by standard chow pellets feeding and measured 8 hrs post dose (reference value: 2 to 2.5g/2 hrs); format: functional
# Rattus norvegicus [39] = assay: Reduction in water intake in 24 hrs food-deprived Sprague-Dawley rat assessed as water intake level at 100 umol/kg, po followed by standard chow pellets feeding and measured 8 hrs post dose (reference value: 19g); format: functional
structure (smiles),measurement,setting,value
Cc1noc(C)c1C(=O)/N=C1\SSC2=NCCN21,IC50,[1],350 nM
same,IC50,[2],460 nM
Cc1onc(-c2ccccc2)c1C(=O)/N=C1\SSC2=NCCN21,IC50,[2],2460 nM
O=C(NC(=S)N1CCNC1=S)c1cccc2ccccc12,IC50,[2],200000 nM
O=C(/N=C1\SSC2=NCCN21)c1cccs1,Activity,Rattus norvegicus [3],8.1 g
same,Activity,Rattus norvegicus [4],<=5 g
same,Activity,Rattus norvegicus [5],4 g
same,Activity,Rattus norvegicus [6],6 g
same,Activity,Rattus norvegicus [7],17 g
same,Activity,Rattus norvegicus [8],Toxic
same,IC50,[1],100 nM
same,Activity,Rattus norvegicus [9],Non-toxic
same,Activity,Rattus norvegicus [10],<=1 g
same,Activity,Rattus norvegicus [11],Active
same,Activity,Rattus norvegicus [12],Active
same,Activity,Rattus norvegicus [13],Active
same,Activity,Rattus norvegicus [14],6 g
same,inhibition (INH),Rattus norvegicus [15],>=50%
same,Activity,Rattus norvegicus [16],6 g
same,Activity,Rattus norvegicus [17],11 g
same,Activity,Rattus norvegicus [18],Active
same,fold change (FC),Rattus norvegicus [19],4
same,fold change (FC),Rattus norvegicus [20],5
same,Activity,Rattus norvegicus [21],3 g
same,Activity,Rattus norvegicus [22],Active
same,Activity,Rattus norvegicus [23],4 g
same,Activity,Rattus norvegicus [24],Toxic
same,Activity,Rattus norvegicus [25],Active
same,Activity,Rattus norvegicus [26],5 g
same,Activity,Rattus norvegicus [27],2 g
same,IC50,[2],420 nM
same,fold change (FC),Rattus norvegicus [28],3
same,Activity,Rattus norvegicus [29],Active
same,Activity,Rattus norvegicus [30],Dose-dependent effect
same,Activity,Rattus norvegicus [31],4 g
same,Activity,Rattus norvegicus [32],8 g
same,Activity,Rattus norvegicus [33],Toxic
same,fold change (FC),Rattus norvegicus [34],6
same,Activity,Rattus norvegicus [35],Non-toxic
O=C(/N=C1\SSC2=NCCN21)c1cccc(F)c1,Activity,Rattus norvegicus [3],9.1 g
same,IC50,[1],240 nM
same,Activity,Rattus norvegicus [36],9.5 g
same,Activity,Rattus norvegicus [37],9.5 g
same,Activity,Rattus norvegicus [14],9 g
same,Activity,Rattus norvegicus [38],1 g
same,IC50,[2],220 nM
same,Activity,Rattus norvegicus [39],10 g
O=C(/N=C1\SSC2=NCCN21)c1ccc(C(F)(F)F)cc1,IC50,[1],170 nM
same,IC50,[2],570 nM
O=C(NC(=S)N1CCNC1=S)c1ccccc1F,IC50,[1],200000 nM
O=C(/N=C1\SSC2=NCCN21)c1cnn(-c2ccc(Cl)cc2)c1C(F)(F)F,IC50,[2],190 nM
O=C(/N=C1\SSC2=NCCN21)c1cccnc1,IC50,[1],133 nM
same,IC50,[2],670 nM
Cc1cccc(C(=O)/N=C2\SSC3=NCCN32)c1,IC50,[1],140 nM
same,IC50,[2],790 nM
O=C(/N=C1\SSC2=NCCN21)c1ccccc1F,IC50,[1],100 nM
same,IC50,[2],350 nM
O=C(/N=C1\SSC2=NCCN21)c1ccc(F)cc1,Activity,Rattus norvegicus [3],7.93 g
same,IC50,[1],200 nM
same,Activity,Rattus norvegicus [36],4.03 g
same,Activity,Rattus norvegicus [37],8.5 g
same,IC50,[2],370 nM
CC(C)(C)c1ccc(C(=O)/N=C2\SSC3=NCCN32)cc1,IC50,[1],370 nM
same,IC50,[2],650 nM
O=C(/N=C1\SSC2=NCCN21)c1ccc(F)cc1F,IC50,[1],190 nM
same,IC50,[2],410 nM
